The record followed here is US5008267A, “Pyrimidinedione compounds, method of producing the same and antiarrythmic agents containing the same” (Mitsui Toatsu Chemicals, Incorporated, priority 1988, dated 1991).

Counter-ions that a name gives are not always drawn.

For test [1], the system named is ventricular muscle refractory period. Description: Influence on ventricular muscle refractory period (ERP). The conditions noted are these: Canis lupus familiaris, iv, i.v., (W-Y)/Y×100, read-out: ERP (%; extensibility of refractory period). It is filed as in vivo, mongrel dog. The protocol: (2) Influence on ventricular muscle refractory period Refractory periods were measured in the following manner before and after each of the compounds and d-sotalol shown in Table 2 was separately administered to a vein or a duodenum, and ERP (%; extensibility of refractory period) was calculated from the measured values: ERP (%)=(W-Y)/Y×100 W: Refractory period after administration Y: Refractory period before administration To a mongrel adult dog, 30 mg/kg of pentobarbital was administered intravenously, and after being anesthetized, a pair of silver-silver chloride electrodes separated by 3 mm was sewn on an opened right ventricule, and electrical stimulation was given at an interval of 400 msec at a duration time of 4 msec under a current twice as much as the threshold. Afterward, a small amount of alcohol was injected into a sinus artery in order to extinguish a pacemaker activity, and the ventricular refractory period (ERP) was measured under ventricule pacing. That is, each 1 train comprised 10 stimulations having intervals of 400 msec, and an interval between the trains was usually 400 msec. However, this interval was shortened 10 msec by 10 msec at the time of the refractory period measurement, and an interval between the trains at the time when reaction to the first stimulation of the train disappeared was regarded as the refractory period. In this case, the electrical stimulation was fed in accordance with a program by a heart stimulation device (Diamedical Co., Ltd.; DHM-226-3).

Test [2] has as its system Purkinje fiber of the right ventricular free wall (myocardial action potential). Kind of test: Influence on myocardial action potential duration time (APD75), isolated right ventricular free wall, microelectrode in Purkinje fiber. The conditions noted are these: Canis lupus familiaris, 20 min, 20 minutes' incubation; for activation at 1 µg/mL: 1.0 μg/ml; for activation at 1 µg/mL / activation at 3 µg/mL / activation at 10 µg/mL: (B-A)/A×100, read-out: APD75 (%); for activation at 3 µg/mL: 3.0 μg/ml; for activation at 10 µg/mL: 10.0 μg/ml. It is filed as cell-based, dog.

Turning to `Cn1c(N2CCN(CCOc3ccc([N+](=O)[O-])cc3)CC2)cc(=O)n(C)c1=O` [Compound 53, 1,3-dimethyl-6-{4-[2-(4-nitrophenoxy)ethyl]piperazin-1-yl}-2,4(1H,3H)-pyrimidinedione hydrochloride], in test [1], the change in vivo at 0.1 mg/kg was 8.8%, the change in vivo at 0.3 mg/kg was 23% and the change in vivo at 1 mg/kg came to 30.1%. For the same molecule, in test [2], the activation at 1 µg/mL was 8%, the activation at 3 µg/mL came to 22% and the activation at 10 µg/mL came to 43%.
Consider `Cn1c(N2CCN(CCCOc3ccccc3[N+](=O)[O-])CC2)cc(=O)n(C)c1=O` [Compound 55, 1,3-dimethyl-6-{4-[3-(2-nitrophenoxy)propyl]piperazin-1-yl}-2.4(1H,3H)-pyrimidinedione hydrochloride], for which, in test [1], the change in vivo at 0.1 mg/kg stood at 0%, the change in vivo at 0.3 mg/kg is 0%, the change in vivo at 1 mg/kg is 6.8% and the change in vivo at 3 mg/kg turned out to be 13.6%. Moreover, in test [2], the activation at 3 µg/mL is 18% and the activation at 10 µg/mL was found to be 39%.
On to `Cn1c(NCCN2CCN(c3ccc([N+](=O)[O-])cc3)CC2)cc(=O)n(C)c1=O` [Compound 64, 1,3-dimethyl-6-{2-[4-(4-nitrophenyl)piperazin-1-yl]ethylamino}-2,4(1H,3H)-pyrimidinedione oxalate], for which, in test [1], the change in vivo at 0.1 mg/kg came to 21.4%, the change in vivo at 0.3 mg/kg was 28.6% and the change in vivo at 1 mg/kg turned out to be 28.6%. Also, the activation at 0.3 µg/mL in test [2] (0.3 μg/ml, (B-A)/A×100) came to 8%. Besides, in test [2], the activation at 1 µg/mL came to 23% and the activation at 3 µg/mL came out at 32%.
For `CN(CCCN1CCN(c2cc(=O)n(C)c(=O)n2C)CC1)c1ccc([N+](=O)[O-])cc1` [Compound 69, 1,3-dimethyl-6-{4-[3-(N-methyl-4-nitroanilino)propyl]piperazin-1-yl}-2,4(1H,3H)-pyrimidinedione oxalate], in test [1], the change in vivo at 0.1 mg/kg was determined as 6.7%, the change in vivo at 0.3 mg/kg came out at 6.7%, the change in vivo at 1 mg/kg is 13.3% and the change in vivo at 3 mg/kg turned out to be 20%. In test [2], the activation at 3 µg/mL was 11% and the activation at 10 µg/mL was 13%.
In the case of `CC(=O)c1cc([N+](=O)[O-])ccc1OCCCN1CCN(c2cc(=O)n(C)c(=O)n2C)CC1` [Compound 76, 1,3-dimethyl-6-{4-[3-(2-acetyl-4-nitrophenoxy)propyl]piperazin-1-yl}-2,4(1H,3H)-pyrimidinedione oxalate], in test [1], the change in vivo at 0.1 mg/kg was found to be 2.4%, the change in vivo at 0.3 mg/kg turned out to be 4.3%, the change in vivo at 1 mg/kg came to 12.6% and the change in vivo at 3 mg/kg stood at 16.5%. In test [2], the activation at 1 µg/mL worked out at 16% and the activation at 3 µg/mL amounted to 21%.
As to `Cn1c(N2CCN(CCOc3ccc([N+](=O)[O-])cc3C(=O)c3ccccc3)CC2)cc(=O)n(C)c1=O` [Compound 99], in test [1], the change in vivo at 0.1 mg/kg was 9.8%, the change in vivo at 0.3 mg/kg is 14.7% and the change in vivo at 1 mg/kg was determined as 23.1%. In test [2], the activation at 1 µg/mL turned out to be 9%, the activation at 3 µg/mL stood at 22% and the activation at 10 µg/mL turned out to be 29%.
Regarding `Cn1c(N2CCN(CCCNc3ccc([N+](=O)[O-])cc3C(=O)c3ccccc3)CC2)cc(=O)n(C)c1=O` [Compound 111, 1,3-dimethyl-6-{4-[3-(2-benzoyl-4-nitroanilino)propyl]piperazin-1-yl}-2,4(1H,3H)-pyrimidinedione oxalate], in test [1], the change in vivo at 0.1 mg/kg was 7.7%, the change in vivo at 0.3 mg/kg turned out to be 10.9%, the change in vivo at 1 mg/kg is 14% and the change in vivo at 3 mg/kg turned out to be 21%. In test [2], the activation at 1 µg/mL was determined as 13% and the activation at 3 µg/mL was found to be 21%.
